Reference: PMC3856571 (Journal of the American Chemical Society, 2013)
Each block holds one molecule with its values, some of them ahead of it. Numbered stars: 1 amine (or outer) side, 2 acyl side, 3 side chain; on linkers, the order of the positions; unused ones are H or OH. Bridge positions count the residues as written; N and C are the ends. Square brackets hold non-standard residues; d marks the D form. Peptide text beside a SMILES is read from it. Trimesoyl = O=C(c1cc(C(=O)[*:2])cc(C(=O)[*:3])c1)[*:1]; Phg = N[C@H](C(=O)O)c1ccccc1; Nle = CCCC[C@H](N)C(=O)O; Dap = NC[C@H](N)C(=O)O

Tests used:
[1] = target: glutathione-S-transferase-PLCγ SH2 domain fusion (GST-SH2); assay: Fluorescence anisotropy specificity test, GST-SH2; format: binding; details: FA, Fig. S4
[2] = target: bovine serum albumin (BSA) (Bos taurus, UniProt P02769); assay: Fluorescence anisotropy specificity test, BSA; format: binding
[3] = target: T1, protein phosphatase PTP1B (Homo sapiens, UniProt P18031); assay: Fluorescence anisotropy specificity test, PTP1B; format: binding; details: FA
T1 sequence (P18031 1-435): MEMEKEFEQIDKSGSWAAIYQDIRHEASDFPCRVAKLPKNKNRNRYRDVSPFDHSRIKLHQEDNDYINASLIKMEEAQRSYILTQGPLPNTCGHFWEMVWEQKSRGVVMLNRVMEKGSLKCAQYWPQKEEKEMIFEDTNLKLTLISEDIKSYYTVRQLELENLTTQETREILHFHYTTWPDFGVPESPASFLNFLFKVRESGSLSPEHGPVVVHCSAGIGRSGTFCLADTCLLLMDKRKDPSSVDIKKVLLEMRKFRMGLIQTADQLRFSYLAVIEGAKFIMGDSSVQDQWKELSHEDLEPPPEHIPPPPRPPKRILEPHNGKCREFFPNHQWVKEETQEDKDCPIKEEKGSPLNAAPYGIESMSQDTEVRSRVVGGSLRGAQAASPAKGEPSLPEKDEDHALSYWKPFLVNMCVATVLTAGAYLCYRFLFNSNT

[4] = system: WEHI-13VAR fibroblasts; format: cell-based
[5] = target: HIV capsid protein (Human immunodeficiency virus type 1 group M subtype B, UniProt P04591); assay: Fluorescence anisotropy specificity test, HIV capsid protein; format: binding; details: FA
[6] = system: GST-BRCT fusion protein; details: FA
[7] = target: TNFα (Homo sapiens, UniProt P01375); assay: Fluorescence anisotropy binding of resynthesized FITC-labeled peptides; details: resynthesized FITC-labeled peptide, FA analysis, Fig. S3
TNFα, sequence (P01375 77-233 limits assumed): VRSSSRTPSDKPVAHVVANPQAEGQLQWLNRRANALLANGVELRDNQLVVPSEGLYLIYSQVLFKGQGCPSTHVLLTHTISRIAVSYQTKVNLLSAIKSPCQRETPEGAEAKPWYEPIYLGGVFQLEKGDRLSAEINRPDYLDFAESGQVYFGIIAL

bovine serum albumin (BSA), sequence (P02769 25-607): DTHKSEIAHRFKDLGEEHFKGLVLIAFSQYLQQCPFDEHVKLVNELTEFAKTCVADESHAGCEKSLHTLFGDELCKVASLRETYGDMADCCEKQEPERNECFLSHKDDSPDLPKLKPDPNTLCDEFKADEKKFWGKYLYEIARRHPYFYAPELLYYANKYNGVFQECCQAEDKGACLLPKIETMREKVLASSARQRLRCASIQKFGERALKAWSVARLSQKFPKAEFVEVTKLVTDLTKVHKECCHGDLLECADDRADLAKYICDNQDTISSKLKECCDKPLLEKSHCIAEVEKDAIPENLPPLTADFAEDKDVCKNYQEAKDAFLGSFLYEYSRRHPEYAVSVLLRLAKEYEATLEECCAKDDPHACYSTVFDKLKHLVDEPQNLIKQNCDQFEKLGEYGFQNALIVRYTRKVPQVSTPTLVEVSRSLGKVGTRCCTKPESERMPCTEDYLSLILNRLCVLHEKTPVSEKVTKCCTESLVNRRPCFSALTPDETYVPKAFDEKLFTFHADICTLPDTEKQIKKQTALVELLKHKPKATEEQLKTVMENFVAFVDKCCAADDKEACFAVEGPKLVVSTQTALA

- Kd ([1]; read-out: KD for GST-SH2): 1.5 µM
- Kd [2]: 7.4 µM
Molecule: CCCC[C@@H]1NC(=O)[C@@H]2CCCCNC(=O)c3cc(cc(c3)C(=O)N[C@@H](C)C(=O)N[C@H](Cc3ccccc3)C(=O)N[C@@H](Cc3c[nH]c4ccccc34)C(=O)N[C@H]([C@H](C)O)C(=O)N[C@@H](CCC(N)=O)C(=O)N2)C(=O)NC[C@@H](C(N)=O)NC(=O)[C@H](Cc2c[nH]cn2)NC(=O)[C@H](C)NC(=O)[C@@H](CC(C)C)NC1=O [Anticachexin C2, bicyclo(Ala-D-Phe-Trp-D-Thr-Gln-Lys-Nle-D-Leu-Ala-His-Dap)] (A[dF]W[dT]QK[Nle][dL]AH[Dap]-NH2; linker N-6-11 via Trimesoyl; C-terminus assumed)

Molecule: C[C@H]1NC(=O)[C@H](Cc2ccc(O)cc2)NC(=O)[C@H](c2ccccc2)NC(=O)c2cc3cc(c2)C(=O)NC[C@@H](C(N)=O)NC(=O)[C@H](Cc2c[nH]cn2)NC(=O)[C@@H](CCCCN)NC(=O)CNC(=O)[C@@H](Cc2ccccc2)NC(=O)[C@H](Cc2ccc(O)cc2)NC(=O)[C@H](CCCCNC3=O)NC1=O [Anticachexin C1, bicyclo(Phg-Tyr-D-Ala-Lys-Tyr-D-Phe-Gly-D-Lys-His-Dap)] ([Phg]Y[dA]KY[dF]G[dK]H[Dap]-NH2; linker N-4-10 via Trimesoyl; C-terminus assumed)
- binding to PTP1B [3]: not to any of the other proteins
- KD for GST-SH2 [1]: not to any of the other proteins
- LD50 of TNFα in the presence of 50 μM Anticachexin C1 ([4]; TNFα 0-250 ng/mL, fixed 50 μM Anticachexin C1, MTT, Fig. S6): 1.8 ng/mL
- protection of cells from TNFα-induced cell death ([4]; TNFα 0.04 ng/ml, actinomycin-D, peptide 0-25 μM, MTT, Fig. 4c): protected the cells from TNFα-induced cell death in a concentration-dependent manner
- Kd [2]: ~34 µM
- binding to HIV capsid protein [5]: not to any of the other proteins
- binding to GST-BRCT fusion protein [6]: not to any of the other proteins

Molecule: TNFα
- LD50 of TNFα in the absence of TNFα inhibitor ([4]; TNFα 0-250 ng/mL, MTT, Fig. S6): 0.46 ng/mL

- KD for TNFα [7]: no detectable binding
Molecule: Bicyclo(Arg-Arg-Arg-Arg-Nal-Phe-Dap-Ser-D-Val-Pro-pTyr-His-Dap)
